Assays:
DSS-induced IBD in mice = assay: Preventive and therapeutic effects on DSS-induced inflammatory bowel disease (IBD) in mice; format: in vivo; details: for reduction in total DAI scores compared to the model group / Total Disease Activity Index (DAI) Scores / Colon length / colon length as % of normal control values / total DAI scores: 40 mg/kg p.o. q.d.; for Total Disease Activity Index (DAI) Scores / total DAI scores: final day; for Total Disease Activity Index (DAI) Scores / Colon length: mean ± S.E.M.; for Total Disease Activity Index (DAI) Scores: model group 14.50; for Colon length: last experimental day, normal control 6.44, model group 4.98; for colon length as % of normal control values: model group 77.32%; for total DAI scores: model group 14.5 points; for preventive and therapeutic effects on DSS-induced IBD (body weight, DAI, colon length) relative to ABX464: further experiments, figures not given
Source text: This study evaluated the preventive and therapeutic effects of the compounds of the present invention on dextran sulfate sodium (DSS)-induced IBD in mice. The experiment utilized female C57BL/6 mice (purchased from Beijing Vital River Laboratory Animal Technology Co., Ltd.) to establish the DSS-induced IBD model.
Female C57BL/6 mice (6-8 weeks old) were purchased from Beijing Vital River Laboratory Animal Technology Co., Ltd. Upon arrival, the mice were housed in individually ventilated cages (IVC) under specific pathogen-free (SPF) conditions, with 2-6 mice per cage. They were provided with ad libitum access to food and water and maintained at a temperature of 20-26° C. (68-79° F.), relative humidity of 40-70%, and a 12-hour light/dark cycle (lights on from 08:00 to 20:00). After a 7-day acclimatization period, experiments were initiated.
Test compounds and ABX464 vehicle: 5% DMSO+10% Solutol HS-15+85% saline, stored at 4° C.
DSS solution: 2% (w/v) DSS in autoclaved drinking water, prepared fresh before use.
The mice were randomly allocated into eight groups according to body weight: normal control group (negative control), model group (DSS group), ABX464 treatment group, test compound groups (administered with Compounds 19, 43, 59, 84, and 89 of the present invention at 40 mg/kg, p.o., q.d.)
Following a 7-day acclimation period, the model group and compound treatment groups were administered 2% DSS aqueous solution ad libitum for 7 days starting from Day 0, followed by 3 days of normal water consumption. All groups received daily oral gavage of their respective vehicles or test compounds for 10 consecutive days beginning on the trial commencement date. During the experimental period, body weight changes in mice were monitored and recorded daily, the Disease Activity Index (DAI) was scored each day with the total score calculated on the final day, and on the last experimental day all animals were humanely euthanized followed by colon collection and length measurement.
The experimental data were expressed as mean±standard error of the mean (mean±S.E.M.). Statistical analysis was performed using GraphPad Prism or SPSS software with appropriate statistical methods. A value of P<0.05 was considered statistically significant.

[1] = In vivo pharmacokinetic evaluation in mice; details: mouse; male ICR mice, po, 10 mg/kg, plasma
Description: The compound was administered orally (p.o.) at a dose of 10 mg/kg. The test formulation was prepared at a final concentration of 0.4 mg/mL in 5% DMSO+45% PEG400+50% aqueous solution or suspension. Male ICR mice (9 per group) were sampled at three discontinuous time points (n=3 mice/time point). Approximately 80 μL of blood was collected via orbital or cardiac puncture at 5 min, 15 min, 30 min, 1 h, 2 h, 4 h, 8 h, and 24 h post-dose. All whole blood samples were collected in EDTA K2-containing tubes. After centrifugation at 4° C. (4000 rpm, 10 min), plasma was collected and stored below −40° C. for subsequent analysis. Compound concentrations in plasma were determined by liquid chromatography-tandem mass spectrometry (LC-MS/MS), and pharmacokinetic parameters were derived from the plasma concentration-time curves.

miR-124 = assay: Induction of miR-124 expression in PBMC cells (qPCR); format: cell-based; details: Homo sapiens, 72 h, 0.1 μM compound, human PBMCs stimulated with PMA/ionomycin, miR-191 reference gene, read-out: miR-124 expression, Fold change vs DMSO
Summary of the method: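 Human PBMCs (3.0*10^6 cells/well) were stimulated with PMA 10 ng/mL plus ionomycin 200 ng/mL for 48 h, then given compound at 0.1 μM final for 72 h. miR-124 was measured by RT-qPCR against miR-191 as reference gene. Expression is relative to DMSO control.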

[2] = day 10, 40 mg/kg p.o. q.d., female C57BL/6 mice, 2% DSS

SMILES | AUC(0-t) [1] [ng·h/mL] | Cmax [1] [ng/mL] | Tmax [1] [h] | half-life [1] [h] | fold induction at 0.1 µM (miR-124) | other results
FC(F)(F)Oc1ccc(Nc2ccc3cccc(Cl)c3n2)cc1 [ABX464, reference compound] | 420 | 168 | 0.5 | 1.08 | 13.5 | reduction in total DAI scores compared to the model group (DSS-induced IBD in mice): 5.72%; body weight loss percentage (DSS-induced IBD in mice; [2]): 5.37%; Total Disease Activity Index (DAI) Scores (DSS-induced IBD in mice): 13.67; Colon length (DSS-induced IBD in mice): 6.22 cm
FC(F)(F)Oc1ccc(Nc2nc3c(Cl)cccc3n3ccnc23)cc1 [Compound 2] | 933 | 207 | 4 | 3.45 | 16.5 | 
Fc1cc(Nc2nc3c(Cl)cccc3n3ccnc23)ccc1OC(F)(F)F [Compound 18] | 1840 | 365 | 2 | 3.78 | 17.6 | 
FC(F)(F)Oc1ccc(Nc2nc3c(Cl)cccc3n3ccnc23)cc1Cl [Compound 19] | 1640 | 358 | 4 | 3.36 | 21.2 | reduction in total DAI scores compared to the model group (DSS-induced IBD in mice): 42.55%; colon length as % of normal control values (DSS-induced IBD in mice): 96.27%; body weight gain percentage (DSS-induced IBD in mice; [2]): 0.16%; Total Disease Activity Index (DAI) Scores (DSS-induced IBD in mice): 8.33; total DAI scores (DSS-induced IBD in mice): 8.33 points; Colon length (DSS-induced IBD in mice): 6.20 cm
Fc1cc(Nc2nc3c(F)cc(Cl)cc3n3ccnc23)ccc1C(F)(F)F [Compound 59] |  |  |  |  | 20.5 | reduction in total DAI scores compared to the model group (DSS-induced IBD in mice): 40.90%; colon length as % of normal control values (DSS-induced IBD in mice): 100%; body weight gain percentage (DSS-induced IBD in mice; [2]): 2.12%; Total Disease Activity Index (DAI) Scores (DSS-induced IBD in mice): 8.57; total DAI scores (DSS-induced IBD in mice): 8.57 points; Colon length (DSS-induced IBD in mice): 6.48 cm
FC(F)(F)c1ccc(NC2=Nc3c(Cl)cccc3N3CCN=C23)cc1Cl [Compound 67] | 2030 | 403 | 4 | 3.29 | 28.8 | 
FC(F)(F)c1ccc(NC2=Nc3c(Cl)cccc3N3CCN=C23)cc1 [Compound 68] | 879 | 243 | 0.5 | 2.17 | 29.5 | 
FC1(F)Oc2ccc(NC3=Nc4c(Cl)cccc4N4CCN=C34)cc2O1 [Compound 70] | 1430 | 357 | 0.5 | 2.32 | 16.4 | 
Fc1cc(NC2=Nc3c(Cl)cccc3N3CCN=C23)ccc1OC(F)(F)F [Compound 71] | 1370 | 274 | 4 | 3.41 | 25.3 | 
FC(F)(F)Oc1ccc(NC2=Nc3c(Br)cccc3N3CCN=C23)cc1Cl [Compound 84] |  |  |  |  | 15.5 | reduction in total DAI scores compared to the model group (DSS-induced IBD in mice): 41.59%; colon length as % of normal control values (DSS-induced IBD in mice): 96.89%; body weight gain percentage (DSS-induced IBD in mice; [2]): 0.38%; Total Disease Activity Index (DAI) Scores (DSS-induced IBD in mice): 8.47; total DAI scores (DSS-induced IBD in mice): 8.47 points; Colon length (DSS-induced IBD in mice): 6.24 cm
FC(F)(F)Oc1ccc(Nc2nc3cccc(Cl)c3n3ccnc23)cc1 [Compound B1, 9-chloro-N-(4-(trifluoromethoxy)-phenyl)imidazolo [1,2-a]quinoxalin-4-amine] | 3590 | 450 | 1 | 2.58 | 43.8 | 
FC(F)(F)Oc1ccc(Nc2nc3ccc(Cl)cc3n3ccnc23)cc1 [Compound B4, 8-chloro-N-(4-(trifluoromethoxy)phenyl)imidazolo [1,2-a]quinoxalin-4-amine] | 2850 | 271 | 2 | 3.26 | 33.1 | 
FC(F)(F)c1ccc(Nc2nc3cccc(Cl)c3n3ccnc23)cc1Cl [Compound B54, 9-chloro-N-(3-chloro-4-(trifluoromethyl)phenyl)imidazolo [1,2-a]quinoxalin-4-amine] | 1330 | 346 | 0.5 | 1.96 | 34.1 | 
FC(F)(F)Oc1ccc(Nc2nc3cccc(Br)c3n3ccnc23)cc1Cl [Compound B83, 9-bromo-N-(3-chloro-4-(trifluoromethoxy)phenyl) imidazolo[1,2-a] quinoxalin-4-amine] |  |  |  |  |  | preventive and therapeutic effects on DSS-induced IBD (body weight, DAI, colon length) relative to ABX464 (DSS-induced IBD in mice): outperformed the reference drug ABX464
Fc1cc(Nc2nc3cc(Cl)cc(Cl)c3n3ccnc23)ccc1C(F)(F)F [Compound B97, 7,9-dichloro-N-(3-fluoro-4-(trifluoromethyl)phenyl) imidazolo[1,2-a] quinoxalin-4-amine] |  |  |  |  | 26.2 | preventive and therapeutic effects on DSS-induced IBD (body weight, DAI, colon length) relative to ABX464 (DSS-induced IBD in mice): outperformed the reference drug ABX464
FC(F)(F)Oc1ccc(Nc2nc3cc(Cl)ccc3n3ccnc23)cc1Cl [Compound B108, 7-chloro-N-(3-chloro-4-(trifluoromethoxy)phenyl) imidazolo[1,2-a] quinoxalin-4-amine] |  |  |  |  | 22.5 | preventive and therapeutic effects on DSS-induced IBD (body weight, DAI, colon length) relative to ABX464 (DSS-induced IBD in mice): outperformed the reference drug ABX464
FC(F)(F)Oc1ccc(NC2=Nc3cccc(Cl)c3N3CCN=C23)cc1 [Compound B118, 9-chloro-N-(4-(trifluoromethoxy)phenyl)-1,2-dihydroimidazo[1,2-a] quinoxalin-4-amine] | 1880 | 269 | 2 | 2.47 | 28.8 | 
FC(F)(F)c1ccc(NC2=Nc3cccc(Cl)c3N3CCN=C23)cc1 [Compound B121, 9-chloro-N-(4-(trifluoromethyl)phenyl)-1,2-dihydroimidazo[1,2-a] quinoxalin-4-amine] | 1950 | 378 | 1 | 2.12 | 29.5 | 
FC(F)(F)c1ccc(NC2=Nc3cc(Cl)cc(Cl)c3N3CCN=C23)cc1 [Compound B139, 7,9-dichloro-N-(4-(trifluoromethyl)phenyl)-1,2-dihydroimidazo[1,2-a] quinoxalin-4-amine] | 3260 | 375 | 2 | 3.36 | 40.6 | 
Fc1cc(NC2=Nc3ccc(Cl)cc3N3CCN=C23)ccc1C(F)(F)F [Compound B146, 8-chloro-N-(3-Fluoro-4-(trifluoromethyl)phenyl)-1,2-dihydroimidazo[1,2-a] quinoxalin-4-amine] |  |  |  |  | 28.7 | 
FC(F)(F)c1ccc(NC2=Nc3ccc(Cl)cc3N3CCN=C23)cc1Cl [Compound B147, 8-chloro-N-(3-chloro-4-(trifluoromethyl)phenyl)-1,2-dihydroimidazo[1,2-a] quinoxalin-4-amine] |  |  |  |  | 27.9 | 
FC(F)(F)Oc1ccc(NC2=Nc3cc(Cl)ccc3N3CCN=C23)cc1 [Compound B148, 7-chloro-N-(4-(trifluoromethoxy)phenyl)-1,2-dihydroimidazo[1,2-a] quinoxalin-4-amine] |  |  |  |  | 29.4 | 
Fc1cc(NC2=Nc3cc(Cl)ccc3N3CCN=C23)ccc1OC(F)(F)F [Compound B149, 7-chloro-N-(3-fluoro-4-(trifluoromethoxy)phenyl)-1,2-dihydroimidazo[1,2-a] quinoxalin-4-amine] |  |  |  |  | 34.7 | 
FC(F)(F)Oc1ccc(NC2=Nc3cc(Cl)ccc3N3CCN=C23)cc1Cl [Compound B150, 7-chloro-N-(3-chloro-4-(trifluoromethoxy)phenyl)-1,2-dihydroimidazo[1,2-a] quinoxalin-4-amine] |  |  |  |  | 26.4 | 

— US20260232662A1, “MIR-124 INDUCER, AND PREPARATION METHOD THEREFOR AND USE THEREOF” (NANJING SYNNOCARE PHARMACEUTICAL TECHNOLOGY CO., LTD., priority 2023, published 2026)
